One assay relates to Human alphaherpesvirus 2. Description: Antiviral activity against Herpesvirus 2. The assay is classed as functional.
The test system of assay [1] is Equine herpesvirus sp. Description: Antiviral activity Equine rhinovirus infected in monkey trachea assessed as log reduction in virus yield at 25 ug/ml. The assay is classed as functional.
For assay [2], the system named is Human alphaherpesvirus 1. Description: Antiviral activity against Herper simplex virus 1 Sheely infected in Blue Spruce mouse assessed as host survival rate administered as 5% suspension in 1% gum tragacanth intravaginally, bid using cotton tampons treatment started 4 hrs post-infection for every 24 hrs and second treatment followed 6 hrs later for 7 days measured 14 days post-infection (reference value: 40%). The assay is classed as functional.

Assay [3] concerns Equine herpesvirus sp. Put plainly: Antiviral activity Equine rhinovirus infected in monkey trachea assessed as log reduction in virus yield at 50 ug/ml. The assay is classed as functional.
Assay [4] relates to Human alphaherpesvirus 1. Description: Antiviral activity against Herper simplex virus 1 Sheely infected in Blue Spruce mouse assessed as host survival time administered as 5% suspension in 1% gum tragacanth intravaginally, bid using cotton tampons treatment started 4 hrs post-infection for every 24 hrs and second treatment followed 6 hrs later for 7 days (reference value: >10.7 days). The assay is classed as functional.

Assay [5] relates to Respiratory syncytial virus. Put plainly: Antiviral activity against Respiratory syncytial virus. As to conditions: human respiratory syncytial virus. The assay is classed as functional.
Assay [6] concerns Human alphaherpesvirus 1. Put plainly: Antiviral activity against Herper simplex virus 1 Sheely infected in Blue Spruce mouse assessed as host survival time administered as 10% suspension in 1% gum tragacanth intravaginally, bid using cotton tampons treatment started 4 hrs post-infection for every 24 hrs and second treatment followed 6 hrs later for 7 days (reference value: >10.7 days). The assay is classed as functional.

In assay [7] the test system is Human alphaherpesvirus 1. Put plainly: Antiviral activity against Herpes simplex virus 1. The assay is classed as functional.
Another assay relates to rhinovirus A2. Put plainly: Antiviral activity against Human rhinovirus 2. The assay is classed as functional. The conditions noted are these: Rhinovirus A.
In assay [8] the test system is Influenza A virus. Put plainly: Antiviral activity against Influenza A2 Japan 170 virus infected in ferret trachea assessed as reduction in virus yield at 50 ug/ml. The assay is classed as functional. As to conditions: A2 Japan 170, Trachea, in Mustela putorius.
Assay [9] concerns Influenza A virus. Description: Antiviral activity against Influenza A2 Japan 170 virus infected in ferret trachea assessed as reduction in virus yield at 25 ug/ml. The assay is classed as functional. The conditions noted are these: A2 Japan 170, Trachea, in Mustela putorius.
Another assay deals with Human respirovirus 3. Put plainly: Antiviral activity against Parainfluenza virus 3. The assay is classed as functional.
Assay [10] has as its system Human alphaherpesvirus 1. Description: Antiviral activity against Herper simplex virus 1 Sheely infected in Blue Spruce mouse assessed as host survival rate administered as 10% suspension in 1% gum tragacanth intravaginally, bid using cotton tampons treatment started 4 hrs post-infection for every 24 hrs and second treatment followed 6 hrs later for 7 days measured 14 days post-infection (reference value: 40%). The assay is classed as functional.

Assay [11] is described as follows: Antiviral activity against Human rhinovirus 17. The assay is classed as functional, Human rhinovirus B17. The conditions noted are these: Rhinovirus B.
In assay [12] the test system is Equine herpesvirus sp. Description: Antiviral activity Equine rhinovirus. The assay is classed as functional.

SMILES strings stand for the structures. In brackets after ≈: the same amount, converted by molar mass. Activity calls are given as the source filed them. No cut-off for these calls is given here. Where only a bound is given, the exact number is not on record here.

`CCC(=O)C(Cc1ccc(/C=C/c2ccc(OC)cc2Cl)cc1Cl)C(=O)CC`: the MIC result in the assay with Human alphaherpesvirus 2 was “inactive”.
Same read-out and setting: the value for `CCC(=O)C(Cc1ccc(C)cc1)C(=O)CC` was “inactive”.
For the compound `CCC(=O)C(Cc1ccc(OC)cc1)C(=O)CC`, in the assay with Human alphaherpesvirus 2, the MIC result is “inactive”.
Regarding `CCC(=O)C(Cc1ccc(/C=C/c2ccc(OC)cc2)cc1)C(=O)CC`, the LCK was 1.7 with Equine herpesvirus sp. [1] and 2 in the assay on Equine herpesvirus sp. [3]. Besides, the Survival is 50% in the assay on Human alphaherpesvirus 1 [2] and 60% in the assay with Human alphaherpesvirus 1 [10]. For the same compound, the figures for the Time in the assay on Human alphaherpesvirus 1 [4] and in the assay with Human alphaherpesvirus 1 [6] were more than 11.3 days and more than 11.4 days, respectively. Moreover, the MIC was 1.5 µg/mL (≈ 4.28 µM) in assay [5]; 0.7 µg/mL (≈ 2 µM) with Human alphaherpesvirus 1 [7]; 0.2 µg/mL (≈ 0.571 µM) in the assay with rhinovirus A2; 1.25 µg/mL (≈ 3.57 µM) in the assay on Human alphaherpesvirus 2; 3 µg/mL (≈ 8.56 µM) with Human respirovirus 3; 0.3 µg/mL (≈ 0.856 µM) in [11]. Also, the MIC with Equine herpesvirus sp. [12] came out at 0.06 µg/mL (≈ 0.171 µM). Also, in the assay on Influenza A virus [8], the inhibition at 50 µg/mL was determined as 0%. Also, in the assay on Influenza A virus [9], the inhibition at 25 µg/mL was 0%.
Turning to `CCC(=O)C(Cc1ccc(/C=C/c2ccc(O)cc2)cc1)C(=O)CC`, the MIC against Human alphaherpesvirus 2 was 1.5 µg/mL (≈ 4.46 µM).
As to `CCC(=O)C(Cc1ccc(/C=C/c2ccc(OC)cc2Cl)cc1)C(=O)CC`, in the assay on Human alphaherpesvirus 2, the MIC was found to be 1.5 µg/mL (≈ 3.9 µM).
The same measure, in the same setting: with `CCC(=O)C(Cc1ccc(/C=C/c2ccccc2)cc1)C(=O)CC` the entry was “inactive”; with `CCC(=O)C(C[C@H]1CC[C@@H](COc2ccc(OC)cc2Cl)CC1)C(=O)CC`, 6 µg/mL (≈ 15.2 µM).
Same read-out and setting: the value for `CCC(=O)C(Cc1ccc(O)cc1)C(=O)CC` was “inactive”.
The same measure, in the same setting: with `CCC(=O)C(Cc1ccc(OC)cc1Cl)C(=O)CC` the figure was 50 µg/mL (≈ 177 µM).
For the compound `CCC(=O)C(Cc1ccc(/C=C/c2ccc(O)cc2Cl)cc1)C(=O)CC`, in the assay on Human alphaherpesvirus 2, the MIC was 1.5 µg/mL (≈ 4.04 µM).
For `CCC(=O)C(Cc1ccc(Cc2ccccc2)cc1)C(=O)CC`, the MIC against Human alphaherpesvirus 2 was found to be 6 µg/mL (≈ 19.5 µM).
In turn, `CCC(=O)C(Cc1ccc(Oc2ccc(OC)cc2)cc1)C(=O)CC` returned an MIC against Human alphaherpesvirus 2 of 3 µg/mL (≈ 8.81 µM).
On to `CCC(=O)C(CC1CCC(Cc2ccc(OC)cc2)CC1)C(=O)CC` (configuration not stated), for which, in the assay on Human alphaherpesvirus 2, the MIC was 6 µg/mL (≈ 17.4 µM).
As for `CCC(=O)C(Cc1ccc(Cc2ccc(O)cc2)cc1)C(=O)CC`, in the assay on Human alphaherpesvirus 2, the MIC is 3 µg/mL (≈ 9.25 µM).
On the same count and under the same terms, with `CCC(=O)C(Cc1ccc(Cc2ccc(OC)cc2)cc1)C(=O)CC` the figure was 6 µg/mL (≈ 17.7 µM).
Still for that read-out and setting: with `CCC(=O)C(Cc1ccc(/C=C/c2ccc(Cl)cc2)cc1)C(=O)CC` the entry was “inactive”.
On the same count and under the same terms, with `CCC(=O)C(Cc1ccc(CCc2ccc(OC)cc2)cc1)C(=O)CC` the figure was 3 µg/mL (≈ 8.51 µM).

One may read the inhibition as the share of the control response that was lost under treatment.

The values above are taken from ChEMBL document CHEMBL3272101, “Antiviral activity of some beta-diketones. 4. Benzyl diketones. In vitro activity against both RNA and DNA viruses” (1978).
